Test results reported in PubChem BioAssay (NCI).
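GI50 = concentration required for 50% inhibition of growth. TGI is the concentration that stops growth completely.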

Columns and labels:
Experiment in all cases: NCI tumour cell line growth inhibition, 384-well format
[1] = system: SF-268 CNS
[2] = system: UACC-257 melanoma
[3] = system: UO-31 renal
[4] = system: MDA-MB-231 breast
[5] = system: U251 glioblastoma
[6] = system: HOP-62 NSCLC
[7] = system: RPMI-8226 leukemia
[8] = system: SN12C renal
[9] = system: MCF7 breast
[10] = system: MOLT-4 leukemia
[11] = system: SK-OV-3 ovarian
[12] = system: CAKI-1 renal
[13] = system: OVCAR-8 ovarian
[14] = system: HL-60(TB) leukemia
[15] = system: A498 renal
[16] = system: NCI-H322M lung
[17] = system: OVCAR-4 ovarian
[18] = system: COLO 205 colon
[19] = system: RXF 393 renal
[20] = system: SR leukemia
[21] = system: M14 melanoma
[22] = system: SNB-19 CNS
[23] = system: NCI/ADR-RES ovarian
[24] = system: BT-549 breast
[25] = system: LOX IMVI melanoma
[26] = system: IGROV1 ovarian
[27] = system: T-47D breast
[28] = system: HCT-116 colon
[29] = system: HS 578T breast
[30] = system: SW-620 colon
[31] = system: HCC-2998 colon
[32] = system: SK-MEL-5 melanoma
[33] = system: SK-MEL-28 melanoma
[34] = system: SF-539 CNS
[35] = system: HT29 colon
[36] = system: MALME-3M melanoma
[37] = system: ACHN renal
[38] = system: 786-0 renal
[39] = system: PC-3 prostate
[40] = system: CCRF-CEM leukemia
[41] = system: NCI-H23 lung
[42] = system: UACC-62 melanoma
[43] = system: MDA-MB-435 melanoma
[44] = system: SNB-75 CNS
[45] = system: HOP-92 NSCLC
[46] = system: EKVX NSCLC
[47] = system: A549 NSCLC
[48] = system: K-562 leukemia
[49] = system: OVCAR-3 ovarian
[50] = system: DU-145 prostate
[51] = system: NCI-H460 NSCLC
[52] = system: TK-10 renal
[53] = system: MDA-MB-468 breast
[54] = system: NCI-H522 lung
[55] = system: SF-295 CNS
[56] = system: NCI-H226 lung

## C[C@@H]1COCCN1c1cc(-c2ccnn2C)c2ccnc(-c3ccn[nH]3)c2n1
[1]
  GI50: 97.4 nM
  TGI: 10500 nM
[2]
  GI50: 1820 nM
  TGI: 14000 nM
[3]
  GI50: 58.6 nM
  TGI: 828 nM
[4]
  GI50: 353 nM
  TGI: > 100000 nM
[5]
  GI50: 123 nM
  TGI: 11900 nM
[6]
  GI50: 28 nM
  TGI: 155 nM
[7]
  GI50: 17.4 nM
  TGI: 45.2 nM
[8]
  GI50: 273 nM
  TGI: 6650 nM
[9]
  GI50: 18.8 nM
  TGI: 14200 nM
[10]
  GI50: < 10 nM
  TGI: 15.5 nM
[11]
  GI50: 63.5 nM
  TGI: 539 nM
[12]
  GI50: 142 nM
  TGI: 1800 nM
[13]
  GI50: 61.1 nM
  TGI: 357 nM
[14]
  GI50: 26.8 nM
  TGI: 83.9 nM
[15]
  GI50: 19.3 nM
  TGI: 67.7 nM
[16]
  GI50: 21.7 nM
  TGI: 213 nM
[17]
  GI50: 39 nM
  TGI: 2720 nM
[18]
  GI50: 286 nM
  TGI: 2580 nM
[19]
  GI50: 27.7 nM
  TGI: 105 nM
[20]
  GI50: < 10 nM
[21]
  GI50: 13.2 nM
  TGI: 41.5 nM
[22]
  GI50: 282 nM
  TGI: 9470 nM
[23]
  GI50: 72 nM
  TGI: 270 nM
[24]
  GI50: 22.2 nM
  TGI: 87.1 nM
[25]
  GI50: 98.4 nM
  TGI: 1090 nM
[26]
  GI50: 93.2 nM
  TGI: 2490 nM
[27]
  GI50: 389 nM
  TGI: 8100 nM
[28]
  GI50: 32.9 nM
  TGI: 7970 nM
[29]
  GI50: 16.7 nM
  TGI: 46.5 nM
[30]
  GI50: 247 nM
  TGI: 19300 nM
[31]
  GI50: < 10 nM
  TGI: 18 nM
[32]
  GI50: 202 nM
  TGI: 873 nM
[33]
  GI50: 1030 nM
  TGI: 13900 nM
[34]
  GI50: 43.2 nM
  TGI: 259 nM
[35]
  GI50: 234 nM
  TGI: 706 nM
[36]
  GI50: 89.6 nM
  TGI: 985 nM
[37]
  GI50: 49.8 nM
  TGI: 225 nM
[38]
  GI50: 37.3 nM
  TGI: 191 nM
[39]
  GI50: 262 nM
  TGI: 11800 nM
[40]
  GI50: < 10 nM
  TGI: 21.5 nM
[41]
  GI50: 16.2 nM
  TGI: 56.3 nM
[42]
  GI50: 176 nM
  TGI: 2140 nM
[43]
  GI50: 33 nM
  TGI: 456 nM
[44]
  GI50: 264 nM
  TGI: 1760 nM
[45]
  GI50: 36.2 nM
  TGI: 339 nM
[46]
  GI50: 124 nM
  TGI: 2480 nM
[47]
  GI50: 104 nM
  TGI: 2230 nM
[48]
  GI50: 40.4 nM
  TGI: 125 nM
[49]
  GI50: 91.1 nM
  TGI: 2620 nM
[50]
  GI50: 53 nM
  TGI: 16300 nM
[51]
  GI50: 10.6 nM
  TGI: 515 nM
[52]
  GI50: 28.7 nM
  TGI: 94.1 nM
[53]
  GI50: 192 nM
  TGI: 973 nM
[54]
  GI50: 411 nM
  TGI: 10700 nM
[55]
  GI50: 36.9 nM
  TGI: 173 nM
[56]
  GI50: 341 nM
  TGI: 4020 nM
